Laboratory results taken from ChEMBL document CHEMBL3885861, “Open TG-GATES”.

Organism: Rattus norvegicus
Test: Open TG-GATES - Regimen: Daily Repeat
Assay type: toxicity, organism-based, Sprague-Dawley
Set-up: regimen Daily Repeat, gender Male, age 6 weeks
Conditions: in vivo, po, 0 mg/kg, route gavage, dose level Control; for APTT / Bas / Eos / Fbg / Hb / Ht / Lym / MCH / MCHC / MCV / Mono / Neu / PT / Plat / RBC / Ret / WBC: tissue Blood; for KIDNEY_L / KIDNEY_R / KIDNEY_TOTAL: tissue Kidney; for LIVER: tissue Liver; for A/G / ALP / ALT / AST / BUN / CRE / Ca / Cl / DBIL / GLC / IP / K / LDH / Na / PL / RALB / TBIL / TC / TG / TP / gamma-GTP: tissue Plasma

ClC(Cl)(Cl)Cl [CARBON TETRACHLORIDE]
TERMINAL_BW (72 h, time 3 day): 223.2 g | APTT (72 h, time 3 day): 17 s | Bas (72 h, time 3 day): 0% | Eos (72 h, time 3 day): 1% | Fbg (72 h, time 3 day): 234.4 mg/dL | Hb (72 h, time 3 day): 13.7 g/dL | Ht (72 h, time 3 day): 40.1% | Lym (72 h, time 3 day): 82.4% | MCH (72 h, time 3 day): 21.8 pg | MCHC (72 h, time 3 day): 34.2% | MCV (72 h, time 3 day): 63.7 fL | Mono (72 h, time 3 day): 2.8% | Neu (72 h, time 3 day): 13% | PT (72 h, time 3 day): 11.6 s | Plat (72 h, time 3 day): 129.5 x10_4/uL | RBC (72 h, time 3 day): 629.2 x10_4/ul | Ret (72 h, time 3 day): 7.4% | WBC (72 h, time 3 day): 96.4 x10_2/uL | KIDNEY_L (72 h, time 3 day): 0.9 g | KIDNEY_R (72 h, time 3 day): 1 g | KIDNEY_TOTAL (72 h, time 3 day): 1.9 g | LIVER (72 h, time 3 day): 10.9 g | A/G (72 h, time 3 day): 1.5 | ALP (72 h, time 3 day): 1075.2 IU/L | ALT (72 h, time 3 day): 44.8 IU/L | AST (72 h, time 3 day): 71.2 IU/L | BUN (72 h, time 3 day): 16.2 mg/dL | CRE (72 h, time 3 day): 0.4 mg/dL | Ca (72 h, time 3 day): 10.9 mg/dL | Cl (72 h, time 3 day): 103 meq/L | DBIL (72 h, time 3 day): 0.08 mg/dL | GLC (72 h, time 3 day): 206.4 mg/dL | IP (72 h, time 3 day): 7.5 mg/dL | K (72 h, time 3 day): 3.9 meq/L | LDH (72 h, time 3 day): 208.6 IU/L | Na (72 h, time 3 day): 140 meq/L | PL (72 h, time 3 day): 155.4 mg/dL | RALB (72 h, time 3 day): 3.2 g/dL | TBIL (72 h, time 3 day): 0.1 mg/dL | TC (72 h, time 3 day): 82.4 mg/dL | TG (72 h, time 3 day): 86.6 mg/dL | TP (72 h, time 3 day): 5.5 g/dL | gamma-GTP (72 h, time 3 day): 1 IU/L | TERMINAL_BW ([…], time 7 day): 257 g | TERMINAL_BW ([…], time 14 day): 300.9 g | TERMINAL_BW ([…], time 28 day): 389 g | APTT ([…], time 7 day): 18.3 s | Bas ([…], time 7 day): 0% | Eos ([…], time 7 day): 1% | Fbg ([…], time 7 day): 249.4 mg/dL | Hb ([…], time 7 day): 13.9 g/dL | Ht ([…], time 7 day): 40.1% | Lym ([…], time 7 day): 84.6% | MCH ([…], time 7 day): 21.6 pg | MCHC ([…], time 7 day): 34.8% | MCV ([…], time 7 day): 61.9 fL | Mono ([…], time 7 day): 2.6% | Neu ([…], time 7 day): 11.2% | PT ([…], time 7 day): 11.5 s | Plat ([…], time 7 day): 129.8 x10_4/uL | RBC ([…], time 7 day): 647.4 x10_4/ul | Ret ([…], time 7 day): 6.1% | WBC ([…], time 7 day): 111 x10_2/uL | APTT ([…], time 14 day): 20.1 s | Bas ([…], time 14 day): 0% | Eos ([…], time 14 day): 0.8% | Fbg ([…], time 14 day): 239 mg/dL | Hb ([…], time 14 day): 14.6 g/dL | Ht ([…], time 14 day): 42.9% | Lym ([…], time 14 day): 80.8% | MCH ([…], time 14 day): 20 pg | MCHC ([…], time 14 day): 34% | MCV ([…], time 14 day): 58.9 fL | Mono ([…], time 14 day): 2.6% | Neu ([…], time 14 day): 15% | PT ([…], time 14 day): 11.5 s | Plat ([…], time 14 day): 124 x10_4/uL | RBC ([…], time 14 day): 728 x10_4/ul | Ret ([…], time 14 day): 3.9% | WBC ([…], time 14 day): 114.8 x10_2/uL | APTT ([…], time 28 day): 22.7 s | Bas ([…], time 28 day): 0% | Eos ([…], time 28 day): 1% | Fbg ([…], time 28 day): 227.4 mg/dL | Hb ([…], time 28 day): 15.1 g/dL | Ht ([…], time 28 day): 43.7% | Lym ([…], time 28 day): 83.8% | MCH ([…], time 28 day): 19.3 pg | MCHC ([…], time 28 day): 34.6% | MCV ([…], time 28 day): 55.7 fL | Mono ([…], time 28 day): 2.6% | Neu ([…], time 28 day): 11.8% | PT ([…], time 28 day): 11.9 s | Plat ([…], time 28 day): 120.7 x10_4/uL | RBC ([…], time 28 day): 785.8 x10_4/ul | Ret ([…], time 28 day): 2.8% | WBC ([…], time 28 day): 121 x10_2/uL | KIDNEY_L ([…], time 7 day): 1 g | KIDNEY_R ([…], time 7 day): 1 g | KIDNEY_TOTAL ([…], time 7 day): 2.1 g | KIDNEY_L ([…], time 14 day): 1.2 g | KIDNEY_R ([…], time 14 day): 1.1 g | KIDNEY_TOTAL ([…], time 14 day): 2.3 g | KIDNEY_L ([…], time 28 day): 1.3 g | KIDNEY_R ([…], time 28 day): 1.4 g | KIDNEY_TOTAL ([…], time 28 day): 2.7 g | LIVER ([…], time 7 day): 12.5 g | LIVER ([…], time 14 day): 12.6 g | LIVER ([…], time 28 day): 16.7 g | A/G ([…], time 7 day): 1.7 | ALP ([…], time 7 day): 922.4 IU/L | ALT ([…], time 7 day): 34.2 IU/L | AST ([…], time 7 day): 62.4 IU/L | BUN ([…], time 7 day): 16.2 mg/dL | CRE ([…], time 7 day): 0.4 mg/dL | Ca ([…], time 7 day): 10.7 mg/dL | Cl ([…], time 7 day): 104 meq/L | DBIL ([…], time 7 day): 0.1 mg/dL | GLC ([…], time 7 day): 204.2 mg/dL | IP ([…], time 7 day): 7.4 mg/dL | K ([…], time 7 day): 4.2 meq/L | LDH ([…], time 7 day): 201.8 IU/L | Na ([…], time 7 day): 139.8 meq/L | PL ([…], time 7 day): 165.4 mg/dL | RALB ([…], time 7 day): 3.5 g/dL | TBIL ([…], time 7 day): 0.2 mg/dL | TC ([…], time 7 day): 81.8 mg/dL | TG ([…], time 7 day): 126.4 mg/dL | TP ([…], time 7 day): 5.5 g/dL | gamma-GTP ([…], time 7 day): 1.2 IU/L | A/G ([…], time 14 day): 1.4 | ALP ([…], time 14 day): 813 IU/L | ALT ([…], time 14 day): 29.8 IU/L | AST ([…], time 14 day): 60.2 IU/L | BUN ([…], time 14 day): 14 mg/dL | CRE ([…], time 14 day): 0.5 mg/dL | Ca ([…], time 14 day): 10.4 mg/dL | Cl ([…], time 14 day): 103.8 meq/L | DBIL ([…], time 14 day): 0.062 mg/dL | GLC ([…], time 14 day): 215.8 mg/dL | IP ([…], time 14 day): 7.3 mg/dL | K ([…], time 14 day): 3.7 meq/L | LDH ([…], time 14 day): 209.6 IU/L | Na ([…], time 14 day): 142.4 meq/L | PL ([…], time 14 day): 135.6 mg/dL | RALB ([…], time 14 day): 3.5 g/dL | TBIL ([…], time 14 day): 0.1 mg/dL | TC ([…], time 14 day): 69 mg/dL | TG ([…], time 14 day): 73.4 mg/dL | TP ([…], time 14 day): 5.9 g/dL | gamma-GTP ([…], time 14 day): 1 IU/L | A/G ([…], time 28 day): 1.4 | ALP ([…], time 28 day): 495 IU/L | ALT ([…], time 28 day): 31.2 IU/L | AST ([…], time 28 day): 60.4 IU/L | BUN ([…], time 28 day): 16.4 mg/dL | CRE ([…], time 28 day): 0.5 mg/dL | Ca ([…], time 28 day): 10.5 mg/dL | Cl ([…], time 28 day): 102.2 meq/L | DBIL ([…], time 28 day): 0.07 mg/dL | GLC ([…], time 28 day): 238 mg/dL | IP ([…], time 28 day): 6.9 mg/dL | K ([…], time 28 day): 3.9 meq/L | LDH ([…], time 28 day): 211.6 IU/L | Na ([…], time 28 day): 140.4 meq/L | PL ([…], time 28 day): 143.8 mg/dL | RALB ([…], time 28 day): 3.5 g/dL | TBIL ([…], time 28 day): 0.1 mg/dL | TC ([…], time 28 day): 72.4 mg/dL | TG ([…], time 28 day): 83 mg/dL | TP ([…], time 28 day): 6 g/dL | gamma-GTP ([…], time 28 day): 0.8 IU/L
